In patent EP3046573B1, “AMYLIN ANALOGUES” (Zealand Pharma A/S, priority 2013, dated 2015):
Numbered stars: 1 amine (or outer) side, 2 acyl side, 3 side chain; on linkers, the order of the positions; unused ones are H or OH. Bridge positions count the residues as written; N and C are the ends. Square brackets hold non-standard residues; d marks the D form. Peptide text beside a SMILES is read from it. * marks the point of attachment. C20 diacid = O=C(O)CCCCCCCCCCCCCCCCCCC(=O)*; Arachidoyl = CCCCCCCCCCCCCCCCCCCC(=O)*; γGlu = O=C(O)[C@H](CCC(=O)[*:2])N[*:1]; NMeI = CC[C@H](C)[C@H](NC)C(=O)O; Orn = NCCC[C@H](N)C(=O)O; Sar = CNCC(=O)O

Experiment: Solubility assessment (turbidity absorbance at 325 nm)
Assay type: physicochemical
Conditions: stock 2 mg/ml diluted 1:1, ambient temperature (typically 25°C), n=1; for Solubility, Acetate buffer pH 4: 100 mM acetate buffer pH 4.0; for Solubility, Acetate buffer pH 5: 100 mM acetate buffer pH 5.0; for Solubility, Histidine buffer pH 6: 100 mM histidine buffer pH 6.0; for Solubility, Histidine buffer pH 7: 100 mM histidine buffer pH 7.0; for Solubility, Phosphate buffer pH 6: 100 mM phosphate buffer pH 6.0; for Solubility, Phosphate buffer pH 7: 100 mM phosphate buffer pH 7.0; for Solubility, Phosphate buffer pH 7.5: 100 mM phosphate buffer pH7.5
Description: A stock solution of the test peptide (2 mg/ml; determined from the weighed amount of peptide) in demineralized water adjusted to pH 2.5 with HCI was prepared, and aliquots were diluted 1:1 in 100 mM acetate buffer (pH 4.0 and pH 5.0), 100 mM histidine buffer (pH 6.0 and pH 7.0) and 100 mM phosphate buffer (pH 6.0, pH 7.0 and pH7.5), respectively, and loaded in a standard flat-bottom, non-sterile 96-well UV Microplate. The absorbance of samples (single samples, n=1) at 280 and 325 nm was measured in an absorbance-based plate reader, which was preheated to ambient temperature (typically 25°C). The turbidity absorbance criterion for a peptide solubility of ≥ 1 mg/ml was an absorbance at 325 nm of ≤ 0.02 absorbance units (which is 5 to 6 times the standard deviation of 8 buffer samples in a plate). Solubility data for peptides of the invention, pramlintide, and for a comparison pramlintide derivative denoted NN96 (see Example 5 below for details) are shown in Table 1, below. Table 1. Solubility data for compounds of the invention.

CC[C@H](C)[C@@H](C(=O)N[C@@H](CC(C)C)C(=O)N[C@@H](CO)C(=O)N[C@@H](CO)C(=O)N[C@H](C(=O)N[C@@H](CC(N)=O)C(=O)N[C@H](C(=O)NCC(=O)N[C@@H](CO)C(=O)N[C@@H](CC(N)=O)C(=O)N[C@H](C(=O)N1CCC[C@H]1C(N)=O)[C@@H](C)O)C(C)C)[C@@H](C)O)N(C)C(=O)[C@H](C)NC(=O)CN(C)C(=O)[C@H](Cc1ccccc1)NC(=O)[C@H](CC(N)=O)NC(=O)[C@H](CC(N)=O)NC(=O)[C@H](CO)NC(=O)[C@H](CO)NC(=O)[C@H](CCCNC(=N)N)NC(=O)[C@H](Cc1c[nH]cn1)NC(=O)[C@H](CC(C)C)NC(=O)[C@H](Cc1ccccc1)NC(=O)[C@H](CCC(=O)O)NC(=O)[C@H](C)NC(=O)[C@H](CC(C)C)NC(=O)[C@H](CCCNC(=N)N)NC(=O)[C@H](CCC(N)=O)NC(=O)[C@@H](NC(=O)[C@H](C)NC(=O)[C@@H]1CSSC[C@H](NC(=O)[C@H](CCCCN)NC(=O)CC[C@H](NC(=O)CCCCCCCCCCCCCCCCCCC(=O)O)C(=O)O)C(=O)N[C@@H](CC(N)=O)C(=O)N[C@@H]([C@@H](C)O)C(=O)N[C@@H](C)C(=O)N[C@@H]([C@@H](C)O)C(=O)N1)[C@@H](C)O [Compound 57, [19CD]-isoGlu-KC()NTATC()ATQRLAEFLHRSSNNF-Gly(Me)-A-Ile(Me)-LSSTNVGSNTP-NH2] ({C20 diacid-γGlu}-KCNTATCATQRLAEFLHRSSNNF[Sar]A[NMeI]LSSTNVGSNTP-NH2; disulfide 2-7)
SS (SS indicates solubility ≥ 1mg/ml): Solubility, Acetate buffer pH 4 | Solubility, Acetate buffer pH 5 | Solubility, Histidine buffer pH 6 | Solubility, Histidine buffer pH 7 | Solubility, Phosphate buffer pH 6 | Solubility, Phosphate buffer pH 7 | Solubility, Phosphate buffer pH 7.5

CC[C@H](C)[C@@H](C(=O)N[C@@H](CC(C)C)C(=O)N[C@@H](CO)C(=O)N[C@@H](CO)C(=O)N[C@H](C(=O)N[C@@H](CC(N)=O)C(=O)N[C@H](C(=O)NCC(=O)N[C@@H](CO)C(=O)N[C@@H](CC(N)=O)C(=O)N[C@H](C(=O)N1CCC[C@H]1C(N)=O)[C@@H](C)O)C(C)C)[C@@H](C)O)N(C)C(=O)[C@H](C)NC(=O)CN(C)C(=O)[C@H](Cc1ccccc1)NC(=O)[C@H](CC(N)=O)NC(=O)[C@H](CC(N)=O)NC(=O)[C@H](CO)NC(=O)[C@H](CO)NC(=O)[C@H](Cc1c[nH]cn1)NC(=O)[C@H](Cc1c[nH]cn1)NC(=O)[C@H](CC(C)C)NC(=O)[C@H](Cc1ccccc1)NC(=O)[C@H](CCC(=O)O)NC(=O)[C@H](C)NC(=O)[C@H](CC(C)C)NC(=O)[C@H](CCCNC(=N)N)NC(=O)[C@H](CCC(N)=O)NC(=O)[C@@H](NC(=O)[C@H](C)NC(=O)[C@@H]1CSSC[C@H](NC(=O)[C@H](CCCN)NC(=O)CC[C@H](NC(=O)CCCCCCCCCCCCCCCCCCC(=O)O)C(=O)O)C(=O)N[C@@H](CC(N)=O)C(=O)N[C@@H]([C@@H](C)O)C(=O)N[C@@H](C)C(=O)N[C@@H]([C@@H](C)O)C(=O)N1)[C@@H](C)O [Compound 65, [19CD]-isoGlu-Orn-C()NTATC()ATQRLAEFLHHSSNNF-Gly(Me)-A-Ile(Me)-LSSTNVGSNTP-NH2] ({C20 diacid-γGlu}-[Orn]CNTATCATQRLAEFLHHSSNNF[Sar]A[NMeI]LSSTNVGSNTP-NH2; disulfide 2-7)
SS (SS indicates solubility ≥ 1mg/ml): Solubility, Acetate buffer pH 4 | Solubility, Acetate buffer pH 5 | Solubility, Histidine buffer pH 6 | Solubility, Histidine buffer pH 7 | Solubility, Phosphate buffer pH 6 | Solubility, Phosphate buffer pH 7 | Solubility, Phosphate buffer pH 7.5

CCCCCCCCCCCCCCCCCCCC(=O)N[C@@H](CCC(=O)N[C@@H](CCCNC(=N)N)C(=O)N[C@H]1CSSC[C@@H](C(=O)N[C@@H](C)C(=O)N[C@H](C(=O)N[C@@H](CCC(N)=O)C(=O)N[C@@H](CCCNC(=N)N)C(=O)N[C@@H](CC(C)C)C(=O)N[C@@H](C)C(=O)N[C@@H](CCC(=O)O)C(=O)N[C@@H](Cc2ccccc2)C(=O)N[C@@H](CC(C)C)C(=O)N[C@@H](Cc2c[nH]cn2)C(=O)N[C@@H](CCCNC(=N)N)C(=O)N[C@@H](CO)C(=O)N[C@@H](CO)C(=O)N[C@@H](CC(N)=O)C(=O)N[C@@H](CC(N)=O)C(=O)N[C@@H](Cc2ccccc2)C(=O)N(C)CC(=O)N[C@@H](C)C(=O)N(C)[C@H](C(=O)N[C@@H](CC(C)C)C(=O)N[C@@H](CO)C(=O)N[C@@H](CO)C(=O)N[C@H](C(=O)N[C@@H](CC(N)=O)C(=O)N[C@H](C(=O)NCC(=O)N[C@@H](CO)C(=O)N[C@@H](CC(N)=O)C(=O)N[C@H](C(=O)N2CCC[C@H]2C(N)=O)[C@@H](C)O)C(C)C)[C@@H](C)O)[C@@H](C)CC)[C@@H](C)O)NC(=O)[C@H]([C@@H](C)O)NC(=O)[C@H](C)NC(=O)[C@H]([C@@H](C)O)NC(=O)[C@H](CC(N)=O)NC1=O)C(=O)O [Compound 94, [Eicosanoyl]-isoGlu-RC()NTATC()ATQRLAEFLHRSSNNF-Gly(Me)-A-Ile(Me)-LSSTNVGSNTP-NH2] ({Arachidoyl-γGlu}-RCNTATCATQRLAEFLHRSSNNF[Sar]A[NMeI]LSSTNVGSNTP-NH2; disulfide 2-7)
SS (SS indicates solubility ≥ 1mg/ml): Solubility, Acetate buffer pH 4 | Solubility, Acetate buffer pH 5 | Solubility, Histidine buffer pH 6 | Solubility, Histidine buffer pH 7 | Solubility, Phosphate buffer pH 6 | Solubility, Phosphate buffer pH 7 | Solubility, Phosphate buffer pH 7.5
